Among the data in patent publication US9550764B2, “Fused heterocyclic compounds and their use” (The Institute of Cancer Research: Royal Cancer Hospital, priority 2012, dated 2017) are GI50 values, retold here.

Broadly, the GI50 is the concentration giving 50% growth inhibition.

Read-outs that look alike come from different tables or passages of the source.

One test deals with SMOV2 (A). The experiment in a line: SRB proliferation assay, SMOV2 (PPM1D amplified). It is filed as cell-based. As to conditions: Homo sapiens, SMOV2, PP1MD amplified cell line (A). From the text: (§1) All cell lines were obtained from ATCC except KPL1 which was obtained from Leibniz Institute DSMZ-German Collection of Microorganisms and Cell Cultures, and SMOV2 which was obtained from Dr. Hiroaki Itamochi (Tottori University School of Medicine, Yonago, Japan; see also: ‘Establishment and characterization of human ovarian clear cell adenocarcinoma cell line (SMOV-2), and its cytotoxity by anticancer agents’, Yonamine K at al., Hum Cell., 1999, 12(3), 139-48; and ‘PPM1D Is a Potential Therapeutic Target in Ovarian Clear Cell Carcinoma’, David S. P. Tan et al., Clin Cancer Res, 2009, 15, 2269).
(§2) Representative compounds were assessed in a sulforhodamine B (SRB) proliferation assay in the cell lines shown in the Tables below, according to the following general procedure:
(§3) Cells were seeded in a 96 well plate at a number optimized for each cell line as known in the art; for example as described in Viachai et al, Nature Protocols, 2006, 1 1112-1116. Two fold dilutions of the compounds to be tested were made in culture medium so that, when diluted 5×, the final concentration in the wells was from 50 μM to 0.000191 μM (19 concentrations). A day after seeding the cells in 96 well plates, 25 μl of the compound diluted in the culture medium was added to 100 μl of the cells and incubated at 37° C. and 5% CO2 for 3 or 5 more days as required. After this time, cells were fixed by adding 10% ice cold TCA (in H2O) to 3% final concentration in the wells and by incubating at 4° C. for at least 2 h. Plates were washed 4 times in H2O and allowed to dry in the air. Added 100 μl of 0.057% SRB solution to the dried plates and incubated at room temperature for at least 30 min. Removed SRB solution from the plates and washed four times with 1% acetic acid. Plates were left overnight to dry in the air followed by addition of 100 μl of 10 mM Tris pH 10.5 to each well of the dried plates and incubation on a shaker for 5 min to solubilize the SRB. Optical density was measured at wave length of 490 nm using a plate reader and analysis performed to measure the GI50 using GraphPad PRISM.

The next test relates to TOV21G (NA). The test can be described thus: SRB proliferation assay, TOV21G (non-amplified control). The test is classed as cell-based. As to conditions: Homo sapiens, 120 h, 5-day incubation, control not amplified (NA).
Description: as §1, §2, §3
For orientation: The SRB assay estimates cell density from bound dye.

Setting [1] is: 72 h, 3-day incubation, read-out: GI50 3-day SMOV2 (A) SRB.
The mark [2] stands for this setting: 120 h, 5-day incubation, read-out: GI50 5-day SMOV2 (A) SRB.

With `CN(C)Cc1cc(F)ccc1-c1nc(-c2ccc3[nH]c(=O)oc3c2)cs1` [Compound 14, 6-(2-(2-((dimethylamino)methyl)-4-fluorophenyl)thiazol-4-yl)benzo[d]oxazol-2(3H)-one], the results for the GI50 in the test with SMOV2 (A) (setting [1]), in the test on SMOV2 (A) (setting [2]) and with TOV21G (NA) were 10 nM, 2 nM and 1600 nM, respectively.
As to `O=c1[nH]c2ccc(-c3csc(-c4ccc(F)cc4)n3)cc2o1` [Compound 1, 6-(2-(4-fluorophenyl)thiazol-4-yl)benzo[d]oxazol-2(3H)-one], the values for the GI50 with SMOV2 (A) (setting [1]), with SMOV2 (A) (setting [2]) and with TOV21G (NA) were 9 nM, 1.1 nM and greater than 10000 nM, respectively.
As to `Cc1cc(F)ccc1-c1nc(-c2ccc3[nH]c(=O)n(CCN(C)C)c3c2)cs1` [Compound 21, 1-(2-(dimethylamino)ethyl)-6-(2-(4-fluoro-2-methylphenyl)thiazol-4-yl)-1H-benzo[d]imidazol-2(3H)-one], the figures for the GI50 in the test with SMOV2 (A) (setting [1]), in the test with SMOV2 (A) (setting [2]) and in the test on TOV21G (NA) were 8 nM, 0.1 nM and 7200 nM, respectively.
Take `O=c1[nH]c2ccc(-c3csc(-c4ccc(F)cc4COCc4ccccc4)n3)cc2o1` [Compound 10, 6-(2-(2-((benzyloxy)methyl)-4-fluorophenyl)thiazol-4-yl)benzo[d]oxazol-2(3H)-one]: the GI50 in the test on SMOV2 (A) (setting [1]) worked out at 300 nM.
For the molecule `Cc1cc(F)ccc1-c1nc(-c2ccc3[nH]c(=O)oc3c2)cs1` [Compound 2, 6-(2-(4-fluoro-2-methylphenyl)thiazol-4-yl)benzo[d]oxazol-2(3H)-one], the GI50 in the test on SMOV2 (A) (setting [1]) was 1.6 nM; with SMOV2 (A) (setting [2]), 0.5 nM; in the test with TOV21G (NA), greater than 10000 nM.
In the same order, the values of `O=c1[nH]c2ccc(-c3csc(-c4ccc(F)cc4COCCO)n3)cc2o1` [Compound 18, 6-(2-(4-fluoro-2-((2-hydroxyethoxy)methyl)phenyl)thiazol-4-yl)benzo[d]oxazol-2(3H)-one] are 1.7 nM, 0.9 nM and 9500 nM.
The corresponding values for `O=c1[nH]c2ccc(-c3csc(-c4ccc(F)cc4CO)n3)cc2o1` [Compound 8, 6-(2-(4-fluoro-2-(hydroxymethyl)phenyl)thiazol-4-yl)benzo[d]oxazol-2(3H)-one] are 23 nM, 0.1 nM and 9200 nM.
Consider `Cc1cc(F)cc(C)c1-c1nc(-c2ccc3[nH]c(=O)oc3c2)cs1` [Compound 25, 6-(2-(4-fluoro-2,6-dimethylphenyl)thiazol-4-yl)benzo[d]oxazol-2(3H)-one], for which the concentration for 50% growth inhibition (GI50) with SMOV2 (A) (setting [1]) came out at 500 nM.
For `O=c1[nH]c2ccc(-c3csc(-c4ccc(F)c(F)c4)n3)cc2o1` [Compound 24, 6-(2-(3,4-difluorophenyl)thiazol-4-yl)benzo[d]oxazol-2(3H)-one], in the test on SMOV2 (A) (setting [1]), the GI50 was 290 nM.
Turning to `O=c1[nH]c2ccc(-c3csc(-c4ccc(F)cc4C4CC4)n3)cc2o1` [Compound 6, 6-(2-(2-cyclopropyl-4-fluorophenyl)thiazol-4-yl)benzo[d]oxazol-2(3H)-one], the GI50 in the test on SMOV2 (A) (setting [1]) came to 200 nM.
The same measure, in the same setting: under `Cc1cc(-c2nc(-c3ccc4[nH]c(=O)oc4c3)cs2)ccc1F` [Compound 23, 6-(2-(4-fluoro-3-methylphenyl)thiazol-4-yl)benzo[d]oxazol-2(3H)-one] stands 250 nM.
Consider `Cc1cc(F)ccc1-c1nc(-c2ccc3c(c2)CC(=O)N3)cs1` [Compound 3, 5-(2-(4-fluoro-2-methylphenyl)thiazol-4-yl)indolin-2-one], for which the GI50 in the test on SMOV2 (A) (setting [1]) was 1.2 nM; in the test on SMOV2 (A) (setting [2]), 0.5 nM; in the test with TOV21G (NA), greater than 10000 nM.
In the same order, the values of `O=c1[nH]c2ccc(-c3csc(-c4ccc(F)cc4CCO)n3)cc2o1` [Compound 9, 6-(2-(4-fluoro-2-(2-hydroxyethyl)phenyl)thiazol-4-yl)benzo[d]oxazol-2(3H)-one] are 7 nM, 0.6 nM and greater than 10000 nM.
For `O=c1[nH]c2ccc(-c3cccc(-c4ccc(F)cc4)n3)cc2o1` [Compound 30, 6-(6-(4-fluorophenyl)pyridin-2-yl)benzo[d]oxazol-2(3H)-one], the GI50 in the test on SMOV2 (A) (setting [1]) amounted to 280 nM; with SMOV2 (A) (setting [2]), 35 nM; with TOV21G (NA) it was 2700 nM.
The corresponding values for `CCc1cc(F)ccc1-c1nc(-c2ccc3[nH]c(=O)oc3c2)cs1` [Compound 5, 6-(2-(2-ethyl-4-fluorophenyl)thiazol-4-yl)benzo[d]oxazol-2(3H)-one] are 13 nM, 9.7 nM and greater than 10000 nM.
On to `CN(C)CCc1cc(F)ccc1-c1nc(-c2ccc3[nH]c(=O)oc3c2)cs1` [Compound 16, 6-(2-(2-(2-(dimethylamino)ethyl)-4-fluorophenyl)thiazol-4-yl)benzo[d]oxazol-2(3H)-one], for which the values for the GI50 with SMOV2 (A) (setting [1]), with SMOV2 (A) (setting [2]) and with TOV21G (NA) were 40 nM, 6 nM and 9200 nM, respectively.
In the same order, the values of `CCc1cc(F)ccc1-c1nc(-c2ccc3[nH]c(=O)[nH]c3c2)cs1` [Compound 22, 5-(2-(2-ethyl-4-fluorophenyl)thiazol-4-yl)-1H-benzo[d]imidazol-2(3H)-one] are 0.38 nM, 0.2 nM and 660 nM.
In the same order, the values of `Cc1cc(F)ccc1-c1nc(-c2ccc3[nH]c(=O)[nH]c3c2)cs1` [Compound 4, 5-(2-(4-fluoro-2-methylphenyl)thiazol-4-yl)-1H-benzo[d]imidazol-2(3H)-one] are 0.2 nM, 0.1 nM and greater than 10000 nM.
Regarding `COCCOCc1cc(F)ccc1-c1nc(-c2ccc3[nH]c(=O)oc3c2)cs1` [Compound 17, 6-(2-(4-fluoro-2-((2-methoxyethoxy)methyl)phenyl)thiazol-4-yl)benzo[d]oxazol-2(3H)-one], the values for the GI50 with SMOV2 (A) (setting [1]), in the test with SMOV2 (A) (setting [2]) and in the test on TOV21G (NA) were 1.2 nM, 0.1 nM and 9400 nM, respectively.
As for `O=c1[nH]c2ccc(-c3csc(-c4ccc(F)cc4COCCN4CCCC4)n3)cc2o1` [Compound 20, 6-(2-(4-fluoro-2-((2-(pyrrolidin-1-yl)ethoxy)methyl)phenyl)thiazol-4-yl)benzo[d]oxazol-2(3H)-one], the figures for the GI50 in the test with SMOV2 (A) (setting [1]), in the test on SMOV2 (A) (setting [2]) and in the test on TOV21G (NA) were 13 nM, 11 nM and 1500 nM, respectively.
Turning to `Cc1c(-c2nc(-c3ccc4[nH]c(=O)oc4c3)cs2)ccc(F)c1F` [Compound 27, 6-(2-(3,4-difluoro-2-methylphenyl)thiazol-4-yl)benzo[d]oxazol-2(3H)-one], the GI50 in the test on SMOV2 (A) (setting [1]) is 1.2 nM; with SMOV2 (A) (setting [2]) it was 0.2 nM; in the test with TOV21G (NA), greater than 10000 nM.
The corresponding values for `O=c1[nH]c2ccc(-c3csc(-c4ccc(F)cc4F)n3)cc2o1` [Compound 11, 6-(2-(2,4-difluorophenyl)thiazol-4-yl)benzo[d]oxazol-2(3H)-one] are 7 nM, 0.75 nM and greater than 10000 nM.
As for `CNCc1cc(F)ccc1-c1nc(-c2ccc3[nH]c(=O)oc3c2)cs1` [Compound 13, 6-(2-(4-fluoro-2-((methylamino)methyl)phenyl)thiazol-4-yl)benzo[d]oxazol-2(3H)-one], the results for the concentration for 50% growth inhibition (GI50) in the test on SMOV2 (A) (setting [1]), in the test with SMOV2 (A) (setting [2]) and in the test on TOV21G (NA) were 32 nM, 6 nM and 1600 nM, respectively.
In the case of `Cc1c(F)ccc(-c2nc(-c3ccc4[nH]c(=O)oc4c3)cs2)c1F` [Compound 26, 6-(2-(2,4-difluoro-3-methylphenyl)thiazol-4-yl)benzo[d]oxazol-2(3H)-one], the GI50 in the test with SMOV2 (A) (setting [1]) was greater than 10000 nM.
Consider `C=CCc1cc(F)ccc1-c1nc(-c2ccc3[nH]c(=O)oc3c2)cs1` [Compound 7, 6-(2-(2-allyl-4-fluorophenyl)thiazol-4-yl)benzo[d]oxazol-2(3H)-one], for which, in the test with SMOV2 (A) (setting [1]), the GI50 was 77 nM.
On to `O=c1[nH]c2ccc(-c3csc(-c4ccc(F)cc4CN4CCOCC4)n3)cc2o1` [Compound 15, 6-(2-(4-fluoro-2-(morpholinomethyl)phenyl)thiazol-4-yl)benzo[d]oxazol-2(3H)-one], for which the GI50 with SMOV2 (A) (setting [1]) was 520 nM.
As to `O=C1Cc2cc(-c3csc(-c4ccc(F)cc4F)n3)c(Cl)cc2N1` [Compound 29, 6-chloro-5-(2-(2,4-difluorophenyl)thiazol-4-yl)indolin-2-one], the GI50 with SMOV2 (A) (setting [1]) stood at 1900 nM.
On the same count and under the same terms, the value for `Cc1cc(F)ccc1-c1cccc(-c2ccc3[nH]c(=O)oc3c2)n1` [Compound 31, 6-(6-(4-fluoro-2-methylphenyl)pyridin-2-yl)benzo[d]oxazol-2(3H)-one] was greater than 10000 nM; that for `O=C1Cc2cc(-c3csc(-c4ccc(F)cc4)n3)c(Cl)cc2N1` [Compound 28, 6-chloro-5-(2-(4-fluorophenyl)thiazol-4-yl)indolin-2-one] was 93 nM.
